The source of these data is patent US20180002288A1, “USE OF PICOLINAMIDES AS FUNGICIDES” (DOW AGROSCIENCES LLC, priority 2014, published 2018).

Like-named read-outs stand apart in the source and are kept apart here. Bounds are passed on as bounds.

Holding throughout (type): in vivo
In one assay the test system is Rhyncosporium secalis. Nature of the assay: Barley Scald fungicidal activity (RHYNSE). As to conditions: Hordeum vulgare, 24 h, high volume, 1 Day Protectant, read-out: RHYNSE % Control rating. The protocol: All fungicides were evaluated using the aforementioned method for their activity vs. all target diseases, unless stated otherwise. Wheat leaf blotch and brown rust activity were also evaluated using track spray applications, in which case the fungicides were formulated as EC formulations, containing 0.1% Trycol 5941 in the spray solutions. Wheat plants (variety Yuma) were grown from seed in a greenhouse in 50% mineral soil/50% soil-less Metro mix until the first leaf was fully emerged, with 7-10 seedlings per pot. These plants were inoculated with an aqueous spore suspension of Zymoseptoria tritici either prior to or after fungicide treatments. After inoculation the plants were kept in 100% relative humidity (one day in a dark dew chamber followed by two to three days in a lighted dew chamber at 20° C.) to permit spores to germinate and infect the leaf. The plants were then transferred to a greenhouse set at 20° C. for disease to develop. When disease symptoms were fully expressed on the 1st leaves of untreated plants, infection levels were assessed on a scale of 0 to 100 percent disease severity. Percent disease control was calculated using the ratio of disease severity on treated plants relative to untreated plants. Barley seedlings (variety Harrington) were propagated in soil-less Metro mix, with each pot having 8 to 12 plants, and used in the test when first leaf was fully emerged. Test plants were inoculated by an aqueous spore suspension of Rhyncosporium secalis 24 hr after fungicide treatments. After inoculation the plants were kept in a dew room at 22° C. with 100% relative humidity for 48 hr. The plants were then transferred to a greenhouse set at 20° C. for disease to develop. Fungicide formulation, application and disease assessment on the sprayed leaves followed the procedures as described in the Example A.

The test system of the next assay is Leptosphaeria nodorum. The assay can be described thus: Wheat Glume Blotch fungicidal activity (LEPTNO). As to conditions: Parastagonospora nodorum, 24 h, high volume, 1 Day Protectant, read-out: LEPTNO % Control rating. The method, then: All fungicides were evaluated using the aforementioned method for their activity vs. all target diseases, unless stated otherwise. Wheat leaf blotch and brown rust activity were also evaluated using track spray applications, in which case the fungicides were formulated as EC formulations, containing 0.1% Trycol 5941 in the spray solutions. Wheat plants (variety Yuma) were grown from seed in a greenhouse in 50% mineral soil/50% soil-less Metro mix until the first leaf was fully emerged, with 7-10 seedlings per pot. These plants were inoculated with an aqueous spore suspension of Zymoseptoria tritici either prior to or after fungicide treatments. After inoculation the plants were kept in 100% relative humidity (one day in a dark dew chamber followed by two to three days in a lighted dew chamber at 20° C.) to permit spores to germinate and infect the leaf. The plants were then transferred to a greenhouse set at 20° C. for disease to develop. When disease symptoms were fully expressed on the 1st leaves of untreated plants, infection levels were assessed on a scale of 0 to 100 percent disease severity. Percent disease control was calculated using the ratio of disease severity on treated plants relative to untreated plants. Wheat plants (variety Yuma) were grown from seed in a greenhouse in 50% mineral soil/50% soil-less Metro mix until the first leaf was fully emerged, with 7-10 seedlings per pot. These plants were inoculated with an aqueous spore suspension of Leptosphaeria nodorum 24 hr after fungicide treatments. After inoculation the plants were kept in 100% relative humidity (one day in a dark dew chamber followed by two days in a lighted dew chamber at 20° C.) to permit spores to germinate and infect the leaf. The plants were then transferred to a greenhouse set at 20° C. for disease to develop. Fungicide formulation, application and disease assessment followed the procedures as described in the Example A.

In a further assay the test system is Cercospora beticola. Nature of the assay: Leaf Spot of Sugar Beets fungicidal activity (CERCBE). The note with it: 24 h, sugar beet, high volume, 1 Day Protectant, read-out: CERCBE % Control rating. The protocol: All fungicides were evaluated using the aforementioned method for their activity vs. all target diseases, unless stated otherwise. Wheat leaf blotch and brown rust activity were also evaluated using track spray applications, in which case the fungicides were formulated as EC formulations, containing 0.1% Trycol 5941 in the spray solutions. Wheat plants (variety Yuma) were grown from seed in a greenhouse in 50% mineral soil/50% soil-less Metro mix until the first leaf was fully emerged, with 7-10 seedlings per pot. These plants were inoculated with an aqueous spore suspension of Zymoseptoria tritici either prior to or after fungicide treatments. After inoculation the plants were kept in 100% relative humidity (one day in a dark dew chamber followed by two to three days in a lighted dew chamber at 20° C.) to permit spores to germinate and infect the leaf. The plants were then transferred to a greenhouse set at 20° C. for disease to develop. When disease symptoms were fully expressed on the 1st leaves of untreated plants, infection levels were assessed on a scale of 0 to 100 percent disease severity. Percent disease control was calculated using the ratio of disease severity on treated plants relative to untreated plants. Sugar beet plants (variety HH88) were grown in soil-less Metro mix and trimmed regularly to maintain a uniform plant size prior to test. Plants were inoculated with a spore suspension 24 hr after fungicide treatments. Inoculated plants were kept in a dew chamber at 22° C. for 48 hr then incubated in a greenhouse set at 24° C. under a clear plastic hood with bottom ventilation until disease symptoms were fully expressed. Fungicide formulation, application and disease assessment on the sprayed leaves followed the procedures as described in the Example A.

The next assay deals with Zymoseptoria tritici. Nature of the assay: Leaf Blotch of Wheat fungicidal activity (SEPTTR). The note with it: Low Volume Cereal Activity at 121.5 g/Ha.
Where [1] appears, read: 24 h, 1 Day Protectant, read-out: SEPTTR 1DP (Wheat Leaf Blotch, 1 Day Protectant).
Setting [2] is: 72 h, 3 Day Curative, read-out: SEPTTR 3DC (Wheat Leaf Blotch, 3 Day Curative).

On to `COc1ccnc(C(=O)N[C@@H](C)C(=O)O[C@@H](C)[C@H](Oc2cc(F)cc(Cl)c2)c2ccccc2)c1OC(C)=O` [Example 207], for which the pest or weed control at 100 ppm with Rhyncosporium secalis, in the assay on Leptosphaeria nodorum and with Cercospora beticola was greater than 80% each time. Besides, the pest or weed control at 121.5 g/ha with Zymoseptoria tritici (setting [1]) and in the assay on Zymoseptoria tritici (setting [2]) was greater than 80% in each case.

`COc1ccnc(C(=O)N[C@@H](C)C(=O)O[C@@H](C)[C@H](Oc2ccc(F)cc2)c2ccccc2)c1OC(C)=O` [Example 235]: the pest or weed control at 100 ppm in the assay on Rhyncosporium secalis, with Leptosphaeria nodorum and in the assay on Cercospora beticola was greater than 80% throughout. Moreover, the pest or weed control at 121.5 g/ha in the assay with Zymoseptoria tritici (setting [1]) and in the assay on Zymoseptoria tritici (setting [2]) was greater than 80% each time.

Regarding `COc1ccnc(C(=O)N[C@@H](C)C(=O)O[C@@H](C)[C@H](Oc2ccccc2Cl)c2ccccc2)c1OC(C)=O` [Example 205], the values for the pest or weed control at 100 ppm in the assay with Rhyncosporium secalis, with Leptosphaeria nodorum and in the assay on Cercospora beticola were less than 80%, greater than 80% and greater than 80%, respectively. In addition, the pest or weed control at 121.5 g/ha with Zymoseptoria tritici (setting [1]) and with Zymoseptoria tritici (setting [2]) was greater than 80% in each case.

With `COc1ccnc(C(=O)N[C@@H](C)C(=O)O[C@@H](C)[C@H](Oc2ccccc2)c2ccc(F)cc2Cl)c1OCOC(C)=O` [Example 260], the pest or weed control at 100 ppm with Rhyncosporium secalis, with Leptosphaeria nodorum and with Cercospora beticola was greater than 80% throughout. Further, the pest or weed control at 121.5 g/ha in the assay on Zymoseptoria tritici (setting [1]) and in the assay with Zymoseptoria tritici (setting [2]) was greater than 80% each time.

As to `COc1ccccc1[C@@H](Oc1ccccc1)[C@H](C)OC(=O)[C@H](C)NC(=O)c1nccc(OC)c1OCOC(C)=O` [Example 255], the pest or weed control at 100 ppm with Rhyncosporium secalis was less than 80%; in the assay with Leptosphaeria nodorum, greater than 80%; in the assay with Cercospora beticola, greater than 80%. Also, the pest or weed control at 121.5 g/ha with Zymoseptoria tritici (setting [1]) and with Zymoseptoria tritici (setting [2]) was greater than 80% in each case.

As to `COc1ccnc(C(=O)N[C@@H](C)C(=O)O[C@@H](C)[C@H](Oc2ccccc2)c2ccc(C)cc2)c1OCOC(C)=O` [Example 252], the pest or weed control at 100 ppm with Rhyncosporium secalis, in the assay on Leptosphaeria nodorum and in the assay on Cercospora beticola was greater than 80% each time. Also, the pest or weed control at 121.5 g/ha in the assay on Zymoseptoria tritici (setting [1]) and in the assay with Zymoseptoria tritici (setting [2]) was greater than 80% each time.

Take `COc1ccnc(C(=O)N[C@@H](C)C(=O)O[C@@H](C)[C@H](Oc2ccccc2)c2ccc(F)cc2C)c1OCOC(C)=O` [Example 259]: the pest or weed control at 100 ppm in the assay with Rhyncosporium secalis, in the assay on Leptosphaeria nodorum and with Cercospora beticola was greater than 80% throughout. Further, the pest or weed control at 121.5 g/ha with Zymoseptoria tritici (setting [1]) and with Zymoseptoria tritici (setting [2]) was greater than 80% each time.

Turning to `COc1ccnc(C(=O)N[C@@H](C)C(=O)O[C@@H](C)C(Oc2ccc(F)cc2)c2ccccc2)c1OC(C)=O` (some centres unmarked) [Example 236], the pest or weed control at 100 ppm in the assay with Rhyncosporium secalis, in the assay with Leptosphaeria nodorum and in the assay on Cercospora beticola was greater than 80% in each case. The pest or weed control at 121.5 g/ha in the assay with Zymoseptoria tritici (setting [1]) and with Zymoseptoria tritici (setting [2]) was greater than 80% throughout.

Regarding `COc1ccnc(C(=O)N[C@@H](C)C(=O)O[C@@H](C)[C@H](Oc2cccc(F)c2)c2ccccc2)c1OCOC(C)=O` [Example 187], the pest or weed control at 100 ppm in the assay with Rhyncosporium secalis, in the assay with Leptosphaeria nodorum and in the assay on Cercospora beticola was greater than 80% throughout. For the same compound, the pest or weed control at 121.5 g/ha in the assay with Zymoseptoria tritici (setting [1]) and in the assay with Zymoseptoria tritici (setting [2]) was greater than 80% each time.

On to `COc1ccnc(C(=O)N[C@@H](C)C(=O)O[C@@H](C)[C@H](Oc2ccccc2)c2ccc3ccccc3c2)c1OCOC(C)=O` [Example 263], for which the pest or weed control at 100 ppm with Rhyncosporium secalis, in the assay with Leptosphaeria nodorum and in the assay with Cercospora beticola was greater than 80% in each case. Besides, the pest or weed control at 121.5 g/ha in the assay on Zymoseptoria tritici (setting [1]) and with Zymoseptoria tritici (setting [2]) was greater than 80% throughout.

Consider `COc1ccnc(C(=O)N[C@@H](C)C(=O)O[C@@H](C)C(Oc2ccc(F)cc2)c2ccc(F)cc2)c1OCOC(C)=O` (some centres unmarked) [Example 238], for which the pest or weed control at 100 ppm in the assay on Rhyncosporium secalis, in the assay with Leptosphaeria nodorum and in the assay on Cercospora beticola was greater than 80% each time. In addition, the pest or weed control at 121.5 g/ha in the assay on Zymoseptoria tritici (setting [1]) and with Zymoseptoria tritici (setting [2]) was greater than 80% each time.

Regarding `COc1ccnc(C(=O)N[C@@H](C)C(=O)O[C@@H](C)[C@H](Oc2cccc(Cl)c2)c2ccccc2)c1OCOC(C)=O` [Example 202], the results for the pest or weed control at 100 ppm with Rhyncosporium secalis, in the assay on Leptosphaeria nodorum and in the assay on Cercospora beticola were less than 0%, less than 80% and less than 80%, respectively. For the same compound, the pest or weed control at 121.5 g/ha with Zymoseptoria tritici (setting [1]) and with Zymoseptoria tritici (setting [2]) was greater than 80% in each case.

Regarding `COc1ccnc(C(=O)N[C@@H](C)C(=O)O[C@@H](C)[C@H](Oc2ccc(F)cc2)c2ccccc2)c1OCOC(C)=O` [Example 237], the pest or weed control at 100 ppm in the assay with Rhyncosporium secalis, in the assay with Leptosphaeria nodorum and in the assay with Cercospora beticola was greater than 80% each time. The pest or weed control at 121.5 g/ha in the assay with Zymoseptoria tritici (setting [1]) and in the assay with Zymoseptoria tritici (setting [2]) was greater than 80% in each case.

Regarding `COc1cc(F)ccc1[C@@H](Oc1ccccc1)[C@H](C)OC(=O)[C@H](C)NC(=O)c1nccc(OC)c1OCOC(C)=O` [Example 256], the pest or weed control at 100 ppm in the assay on Rhyncosporium secalis, in the assay on Leptosphaeria nodorum and in the assay with Cercospora beticola was greater than 80% in each case. Besides, the pest or weed control at 121.5 g/ha in the assay with Zymoseptoria tritici (setting [1]) and in the assay with Zymoseptoria tritici (setting [2]) was greater than 80% in each case.

In the case of `COc1ccnc(C(=O)N[C@@H](C)C(=O)O[C@@H](C)[C@H](Oc2ccccc2)c2ccccc2)c1OCOC(C)=O` [Example 183], the pest or weed control at 100 ppm in the assay with Rhyncosporium secalis, with Leptosphaeria nodorum and in the assay with Cercospora beticola was greater than 80% throughout. The pest or weed control at 121.5 g/ha with Zymoseptoria tritici (setting [1]) and with Zymoseptoria tritici (setting [2]) was greater than 80% in each case.

Turning to `COc1ccnc(C(=O)N[C@@H](C)C(=O)O[C@@H](C)[C@H](Oc2ccccc2)c2ccc(F)cc2F)c1OCOC(C)=O` [Example 250], the pest or weed control at 100 ppm was less than 80% in the assay on Rhyncosporium secalis, less than 0% with Leptosphaeria nodorum and less than 80% in the assay on Cercospora beticola. Further, the pest or weed control at 121.5 g/ha in the assay with Zymoseptoria tritici (setting [1]) and in the assay with Zymoseptoria tritici (setting [2]) was greater than 80% in each case.
